Experimental data reported in patent US4788069A (The Coca-Cola Company, priority 1987, dated 1988).
Residues, ends and D or L forms follow the SMILES beside them.

Legend:
[1] = cited from earlier work; for times sweeter than sucrose: prior art value, weight to weight stated for formula 1
[2] = Sweetness relative to sucrose, compounds tasted in aqueous solution; details: for Sweetness (x sucrose w/w): Table I, diastereomeric mixtures of L-aspartyl-3-(bicycloalkyl) D,L-alanine methyl esters
Experimental: The 2R-endo- and 2R-exo-fenchyl esters described by Fujino, cited above, have sweetness of high intensity.
In Table I, the reported sweetness is measured for diastereomeric mixtures. The sweetness of each optically pure compound according to the invention will differ from the sweetness of the mixture.
The sweetness values of each compound shown in Table I correspond to a mixture of optical isomers, whose maximum theoretical number of isomers is listed. In order to evaluate the sweetness of different isomeric forms, four pairs of optical isomers of one of the novel compounds were synthesized. Each pair differed from the others only in the stereochemistry of the bicyclic camphor ring.

## CC12CCC(C1)C(C)(C)C2OC(=O)C(NC(=O)C(N)CC(=O)O)c1ccccc1 (stereo not drawn) [2R, exo-fenchyl ester]
[1]; prior art fenchyl esters
  sweetness intensity (in words): high sweetness intensities

## COC(=O)C(CC1CC2CCC1C2)NC(=O)[C@@H](N)CC(=O)O (stereo partly drawn) [(R,S)endo norbornyl, L-Aspartyl-D,L-(endo-R,S-norbornyl)-3-alanine methyl ester]
[2]
  Sweetness (x sucrose w/w): 290 x sucrose w/w

## COC(=O)C(CC1CC2CCC1C2)NC(=O)C(N)CC(=O)O [(R,S)exo norbornyl]
[2]
  Sweetness (x sucrose w/w): 200 x sucrose w/w

## COC(=O)C(NC(=O)[C@@H](N)CC(=O)O)C(=O)OC1C2(C)CCC(C2)C1(C)C (stereo partly drawn) [L-aspartyl-2-amino malonyl methyl fenchyl diester]
[1]
  times sweeter than sucrose: 20,000 times sweeter than sucrose

## COC(=O)[C@H](Cc1ccccc1)NC(=O)[C@@H](N)CC(=O)O [L-aspartyl-L-phenylalanine methyl ester] (H-Asp-Phe-OMe)
[1]
  times sweeter than sucrose: about 180 times sweeter than sucrose

## COC(=O)C(CC1CC2CCC1C2)NC(=O)[C@@H](N)CC(=O)O (stereo partly shown) [norbornyl]
[2]
  Sweetness (x sucrose w/w): 225 x sucrose w/w

## (alpha-carboxy) glycyl-3-norbornylalanine methyl ester
[2]; formula 4 tasted in aqueous solution
  sweetness (in words): intensely sweet
